# In US20120010075A1 (priority 2009, published 2012):
# Read-outs that look alike come from different tables or passages of the source.
# Legend:
# [1] = tested on: Leptosphaeria nodorum (LEPTNO); experiment: In vitro fungitoxicity of hydrazones with and without copper towards Leptosphaeria nodorum (Example 26); format: cell-based; conditions: compound 0.05 μg/mL, 72 h at 25° C.
# Phytophthora infestans [2] = format: in vivo, Phytophthora infestans on tomato; conditions: hydrazone 50 ppm + 50 μM CuCl2.2H2O, applied 24 h before inoculation, assessed 7 days after inoculation, tomato
# Phytophthora capsici [3] = experiment: In vitro fungitoxicity of hydrazones with and without copper towards Phytophthora capsici (Example 28, Table 3); format: cell-based; conditions: 0.050 μg/mL, 48 h
# Ustilago maydis = experiment: In vitro fungitoxicity of hydrazones with and without copper towards Ustilago maydis (Example 29, Table 4); format: cell-based; conditions: 1 μg/mL, 48 h
# [4] = tested on: Leptosphaeria nodorum (LEPTNO); experiment: Isolated metal-hydrazone complexes versus parent hydrazones, in vitro, Leptosphaeria nodorum (Example 31, Table 7); format: cell-based; conditions: Parastagonospora nodorum; 0.1 μg/mL; copper-minus medium; 72 h
# [5] = tested on: Leptosphaeria nodorum (glume blotch of wheat); experiment: Cu-hydrazone complexes versus parent hydrazones against glume blotch of wheat (Example 32, Table 8); format: in vivo, Leptosphaeria nodorum on wheat (cultivar Yuma); conditions: Parastagonospora nodorum, 200 ppm spray, inoculated after 24 h
# Phytophthora capsici [6] = experiment: Fungitoxicity of copper-hydrazone mixtures of different ratios towards Phytophthora capsici (Example 36, Table 12); format: cell-based; conditions: Phytophthora capsici
# Description: In vitro fungitoxicity assays against Phytophthora capsici were conducted using the copper-minus AS medium described in Example 28. Mixtures containing hydrazone compound 16 at 200 nM and CuCl2.2H2O at 0.2 μM (1:1 molar ratio), 0.8 μM (1:4 ratio), 3.2 μM (1:16 ratio), 12.5 μM (1:62.5 ratio), 50 μM (1:200 ratio) and 200 μM (1:1000 ratio) were prepared in copper-minus AS medium. Two-fold dilution series of these mixtures were then prepared in 100 μL aliquots of copper-minus AS medium in flat-bottomed 96-well microtiter plates. A suspension of P. capsici zoospores in Chelex-treated water at 5×10^4 spores per mL was prepared as in Example 28. Microtiter plates were inoculated with 100 μL of the spore suspension and incubated at 25° C. for 48 h before assessing fungal growth by measuring light scattering in a NepheloStar plate reader.
# Growth inhibition was determined by comparing growth in the presence of copper-hydrazone mixture with growth in control wells lacking the copper-hydrazone mixture. EC50 values were calculated from dose-response curves, and are expressed as the amounts of hydrazone or copper in each test mixture at the rates providing 50% inhibition of growth as compared to a control lacking the copper-hydrazone mixture.
# Phytophthora infestans [7] = format: in vivo, Phytophthora infestans on tomato (Outdoor Girl)
structure (smiles),measurement,setting,value
O=C(N/N=C/c1cc(Cl)cc(Cl)c1O)c1ccccc1 [Example 16],inhibition of growth at 0.05 µg/mL,"[1]; Parastagonospora nodorum, 72 h, copper-minus medium, read-out: LEPTNO % Inhn. Minus Copper Observed",0%
same,LEPTNO % Inhn. Plus Copper Observed,[1]; copper-plus medium (CuCl2.2H2O),97.1%
same,TLB % Control,Phytophthora infestans [2],94.0%
same,% Inhn Plus copper Observed,"Phytophthora capsici [3]; copper-plus AS medium (CuCl2, 50 μM)",91.9%
same,inhibition of growth at 0.05 µg/mL,"Phytophthora capsici [3]; Phytophthora capsici, copper-minus AS medium, read-out: % Inhn Minus copper Observed",0%
same,% Inhn. Plus copper Observed,"Ustilago maydis; copper-plus medium (CuCl2, 10 μM)",80.0%
same,inhibition of growth at 1 µg/mL,"Ustilago maydis; Mycosarcoma maydis, copper-minus medium, read-out: % Inhn. Minus copper Observed",0%
same,inhibition at 0.1 µg/mL,[4],19.9%
same,pest or weed control at 200 ppm,[5],41%
same,EC50,"Phytophthora capsici [6]; Hydrazone without CuCl2, read-out: Hydrazone EC50",143 nM
same,EC50,"Phytophthora capsici [6]; Hydrazone:Cu ratio 1 to 1, read-out: Hydrazone EC50 (amount of hydrazone in mixture at EC50)",71.1 nM
same,EC50,"Phytophthora capsici [6]; Hydrazone:Cu ratio 1 to 4, read-out: Hydrazone EC50 (amount of hydrazone in mixture at EC50)",47.1 nM
same,EC50,"Phytophthora capsici [6]; Hydrazone:Cu ratio 1 to 16, read-out: Hydrazone EC50 (amount of hydrazone in mixture at EC50)",27.5 nM
same,EC50,"Phytophthora capsici [6]; Hydrazone:Cu ratio 1 to 62.5, read-out: Hydrazone EC50 (amount of hydrazone in mixture at EC50)",16.6 nM
same,EC50,"Phytophthora capsici [6]; Hydrazone:Cu ratio 1 to 250, read-out: Hydrazone EC50 (amount of hydrazone in mixture at EC50)",7.6 nM
same,EC50,"Phytophthora capsici [6]; Hydrazone:Cu ratio 1 to 1000, read-out: Hydrazone EC50 (amount of hydrazone in mixture at EC50)",4.6 nM
same,% Control of Tomato Late Blight,Phytophthora infestans [7]; hydrazone 10 μM + CuCl2 10 μM,33.5%
same,"% Control of Tomato Late Blight, predicted (in brackets, Colby)",Phytophthora infestans [7]; hydrazone 10 μM + CuCl2 10 μM,3.1%
same,% Control of Tomato Late Blight,Phytophthora infestans [7]; hydrazone 10 μM + CuCl2 50 μM,39.7%
same,"% Control of Tomato Late Blight, predicted (in brackets, Colby)",Phytophthora infestans [7]; hydrazone 10 μM + CuCl2 50 μM,9.9%
same,% Control of Tomato Late Blight,Phytophthora infestans [7]; hydrazone 10 μM + CuCl2 200 μM,69.0%
same,"% Control of Tomato Late Blight, predicted (in brackets, Colby)",Phytophthora infestans [7]; hydrazone 10 μM + CuCl2 200 μM,39.2%
same,% Control of Tomato Late Blight,Phytophthora infestans [7]; hydrazone 10 μM + CuCl2 400 μM,75.7%
same,"% Control of Tomato Late Blight, predicted (in brackets, Colby)",Phytophthora infestans [7]; hydrazone 10 μM + CuCl2 400 μM,56.6%
same,% Control of Tomato Late Blight,Phytophthora infestans [7]; hydrazone 10 μM + CuCl2 800 μM,94.2%
same,"% Control of Tomato Late Blight, predicted (in brackets, Colby)",Phytophthora infestans [7]; hydrazone 10 μM + CuCl2 800 μM,70.7%
same,% Control of Tomato Late Blight,Phytophthora infestans [7]; hydrazone 10 μM + CuSO4 10 μM,26.3%
same,"% Control of Tomato Late Blight, predicted (in brackets, Colby)",Phytophthora infestans [7]; hydrazone 10 μM + CuSO4 10 μM,3.1%
same,% Control of Tomato Late Blight,Phytophthora infestans [7]; hydrazone 10 μM + CuSO4 50 μM,28.1%
same,"% Control of Tomato Late Blight, predicted (in brackets, Colby)",Phytophthora infestans [7]; hydrazone 10 μM + CuSO4 50 μM,6.2%
same,% Control of Tomato Late Blight,Phytophthora infestans [7]; hydrazone 10 μM + CuSO4 200 μM,56.0%
same,"% Control of Tomato Late Blight, predicted (in brackets, Colby)",Phytophthora infestans [7]; hydrazone 10 μM + CuSO4 200 μM,50.4%
same,% Control of Tomato Late Blight,Phytophthora infestans [7]; hydrazone 10 μM + CuSO4 400 μM,77.3%
same,"% Control of Tomato Late Blight, predicted (in brackets, Colby)",Phytophthora infestans [7]; hydrazone 10 μM + CuSO4 400 μM,76.4%
same,% Control of Tomato Late Blight,Phytophthora infestans [7]; hydrazone 10 μM + CuSO4 800 μM,72.2%
same,"% Control of Tomato Late Blight, predicted (in brackets, Colby)",Phytophthora infestans [7]; hydrazone 10 μM + CuSO4 800 μM,83.1%
same,% Control of Tomato Late Blight,"Phytophthora infestans [7]; hydrazone 10 μM alone, no copper",1.5%
same,% Control of Tomato Late Blight,Phytophthora infestans [7]; hydrazone 50 μM + CuCl2 10 μM,41.9%
same,"% Control of Tomato Late Blight, predicted (in brackets, Colby)",Phytophthora infestans [7]; hydrazone 50 μM + CuCl2 10 μM,12.8%
same,% Control of Tomato Late Blight,Phytophthora infestans [7]; hydrazone 50 μM + CuCl2 50 μM,63.0%
same,"% Control of Tomato Late Blight, predicted (in brackets, Colby)",Phytophthora infestans [7]; hydrazone 50 μM + CuCl2 50 μM,18.8%
same,% Control of Tomato Late Blight,Phytophthora infestans [7]; hydrazone 50 μM + CuCl2 200 μM,91.5%
same,"% Control of Tomato Late Blight, predicted (in brackets, Colby)",Phytophthora infestans [7]; hydrazone 50 μM + CuCl2 200 μM,45.2%
same,% Control of Tomato Late Blight,Phytophthora infestans [7]; hydrazone 50 μM + CuCl2 400 μM,91.7%
same,"% Control of Tomato Late Blight, predicted (in brackets, Colby)",Phytophthora infestans [7]; hydrazone 50 μM + CuCl2 400 μM,60.9%
same,% Control of Tomato Late Blight,Phytophthora infestans [7]; hydrazone 50 μM + CuCl2 800 μM,98.3%
same,"% Control of Tomato Late Blight, predicted (in brackets, Colby)",Phytophthora infestans [7]; hydrazone 50 μM + CuCl2 800 μM,73.6%
same,% Control of Tomato Late Blight,Phytophthora infestans [7]; hydrazone 50 μM + CuSO4 10 μM,56.8%
same,"% Control of Tomato Late Blight, predicted (in brackets, Colby)",Phytophthora infestans [7]; hydrazone 50 μM + CuSO4 10 μM,12.8%
same,% Control of Tomato Late Blight,Phytophthora infestans [7]; hydrazone 50 μM + CuSO4 50 μM,67.7%
